We go through one compound from PMC10771590, “Pathway crosstalk between the central metabolic and heme biosynthetic pathways in Phanerochaete chrysosporium” (Applied Microbiology and Biotechnology, 2024).

Assay [1] deals with Glyceraldehyde 3-phosphate dehydrogenase (GAPDH) of Plasmodium falciparum. More on the design: method as in Campanale et al. 2003. The following applies: ref Campanale et al. 2003; cited from earlier work.
Assay [2] relates to P. chrysosporium. As to the kind of experiment: Growth of P. chrysosporium with exogenously added hemin. The assay is classed as cell-based, Phanerochaete chrysosporium. On the procedure:
P. chrysosporium (ATCC 34541) was grown from conidial inocula at 37 °C in a stationary culture (20-ml medium in a 200-ml Erlenmeyer flask). The medium (pH 4.5) used in this study was a ligninolytic medium as previously described (Shimizu et al. [2005]; Kirk et al. [1978]), with 1% glucose as carbon source and 1.2 mM ammonium tartrate as nitrogen source.
Taking these observations together, a metabolic “pathway crosstalk” is proposed and summarized in Scheme 1. In P. chrysosporium, heme plays an important role as a prosthetic molecule for many cellular processes, in particular, ligninolytic enzymes. Upon addition of exogenous aromatic compounds, fungal cellular metabolism was dramatically shifted from basic energy metabolism to “defensive” or “productive” metabolism. Glucose uptake and consumption and NADPH and succinyl-CoA production were activated in response to exogenous aromatic compounds. Furthermore, the heme synthetic pathway was activated (Shimizu et al. [2005]). Immediate activation of the heme synthesis against aromatics is crucial for the fungus to produce aromatics-degrading enzymes. On the other hand, free heme is highly toxic to the cell. Thus, metabolic overflow of heme biosynthesis causes highly stressful conditions in the mitochondria. The TCA cycle, including CS, is located in the mitochondrial matrix space (Mcalister-Henn and Small [1997]). […]

Assay [3] addresses T1, rPcCS (Phanerodontia chrysosporium, UniProt Q0EAA7).
T1 sequence (Q0EAA7 1-446): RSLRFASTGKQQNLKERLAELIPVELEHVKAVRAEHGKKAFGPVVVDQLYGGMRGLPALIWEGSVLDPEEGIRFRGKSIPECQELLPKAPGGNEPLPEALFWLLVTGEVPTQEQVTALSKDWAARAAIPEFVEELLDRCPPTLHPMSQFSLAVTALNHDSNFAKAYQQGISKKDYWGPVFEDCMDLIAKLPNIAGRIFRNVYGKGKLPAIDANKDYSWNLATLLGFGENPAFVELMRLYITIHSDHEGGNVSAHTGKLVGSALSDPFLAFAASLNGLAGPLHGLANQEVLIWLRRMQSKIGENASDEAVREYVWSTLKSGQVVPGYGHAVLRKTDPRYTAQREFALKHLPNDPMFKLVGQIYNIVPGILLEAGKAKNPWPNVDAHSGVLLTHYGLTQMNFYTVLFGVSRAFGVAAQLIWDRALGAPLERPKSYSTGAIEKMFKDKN
As to the kind of experiment: Heme-derived time-dependent inhibition of PcCS. The assay is classed as biochemical, Phanerochaete chrysosporium. The following applies: 30-min preincubation of PcCS with hemin at 4 °C; read-out: half-maximal inhibitory concentration (IC50). Here is the method: Therefore, the data were expressed as relative values against the controls. When 5.7 μM hemin was used, citrate formed was determined by HPLC because of spectroscopic interference with the Soret absorption. All experiments were repeated at least three times, and standard deviations were within 5% in each plot.
Fig. 5 Inhibitory effect of hemin on PcCS reaction. […] Reaction mixtures contained 1.5 nM rPcCS, 40 mM Tris-HCl (pH 8.5), and 120 μM DTNB. Fixed substrate was added at 12 μM and variable substrate at 3–12 μM. […] Insets: secondary plots of each slope of Lineweaver–Burk plots against the concentration of hemin for determining inhibition constants.

The target in assay [4] is T2, PcGAPDH (Phanerodontia chrysosporium, UniProt Q01982).
T2 construct: 6xHis-tag (pET-30) (cleaved yes); made in house; host or cells: E. coli BL21(DE3)pLysS
T2 sequence (Q01982 whole entry): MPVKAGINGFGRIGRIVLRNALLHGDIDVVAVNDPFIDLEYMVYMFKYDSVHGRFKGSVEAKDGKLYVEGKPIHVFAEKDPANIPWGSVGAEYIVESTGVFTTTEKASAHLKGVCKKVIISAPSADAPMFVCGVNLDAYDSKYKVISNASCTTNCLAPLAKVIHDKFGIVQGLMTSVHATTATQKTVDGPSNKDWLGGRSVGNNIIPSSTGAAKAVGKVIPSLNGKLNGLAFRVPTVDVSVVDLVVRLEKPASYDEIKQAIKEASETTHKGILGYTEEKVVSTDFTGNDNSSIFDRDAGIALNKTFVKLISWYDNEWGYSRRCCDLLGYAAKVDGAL
The assay can be described thus: Peroxidative activity of GAPDH–hemin complex (TMB oxidation). The assay is classed as biochemical, Phanerochaete chrysosporium. The following applies: on binding PcGAPDH in vitro, 1:1 or 1:2 PcGAPDH:hemin, 100 μM H2O2. On the procedure: Peroxidative activity of the PcGAPDH–hemin complex was investigated by using 3, 3′, 5, 5′-tetramethylbenzidine (TMB) as oxidation substrate. Before the assay, 100 μM PcGAPDH was incubated with hemin at 1:1 or 1:2 stoichiometry for 30 min at 4 °C in the dark. Reaction mixtures (1 ml) contained 40 mM Tris–HCl (pH 7.5), 125 μM TMB, 100 μM hydrogen peroxide, and 1 μM PcGAPDH with hemin at 1:1 or 1:2 stoichiometry. As a control, 1 or 2 μM hemin without PcGAPDH was used. The reaction was monitored at 655 nm upon the formation of benzidine cation radical for 1 min.
Fig. 6 Peroxidative activity of GAPDH–hemin complex. Peroxidative activity of GAPDH–hemin complex was investigated by using TMB as an oxidation substrate. Reaction mixtures contained 40 mM Tris/HCl (pH 7.5), 125 μM TMB, 100 μM hydrogen peroxide, 1 μM PcGAPDH with hemin at 1:1 (a) or 1:2 (b) stoichiometry. As a control, 1 (c) or 2 (d) μM hemin without PcGAPDH was used. The reaction was monitored at 655 nm for 1 min

What is called Ki is the dissociation constant of the complex between target and ligand, obtained from inhibition or displacement. For `C=CC1=C(C)c2cc3[nH]c(cc4nc(cc5[nH]c(cc1n2)c(C)c5CCC(=O)O)C(CCC(=O)O)=C4C)c(C)c3C=C.[Fe+3]` [hemin], the Ki in assay [1] was 200 nM. Further, the “growth of P. chrysosporium” value in assay [2] (1.0 μM hemin added to culture medium in the dark (data not shown)) and in assay [2] (exogenous addition of hemin at sub-μM concentrations) was “completely shut down” each time. Further, the IC50 in assay [3] was determined as 1000 nM. For the same compound, the “TMB-oxidizing ability of heme” value in assay [4] is recorded as “suppressed”.
